The results in this text go back to patent publication US7301020B2, “Macrolide analogs and methods for identifying same” (priority 2003, dated 2007).

One series relates to NBT-II cells. Nature of the series: Effect of macrolides on NBT-II cells (live cell microscopy). Type of series: cell-based, rat. How it is done: FIG. 7: Effect of KabC on NBT-II cells. NBT-II cells are imaged after 16 hours of drug treatment. KabC concentrations: (A), Control; (B), 10 nM; (C), 100 nM and (D), 1000 nM.
Cell Culture: Rat bladder NBT-II carcinoma cells and mouse NIH 3T3 fibroblast cells are maintained and treated with external drugs as described in Choidas et al (1998).
Live cell microscopy: A multi-model microscope workstation was used to image phase contrast and fluorescence images of living cells (Choidas et al, 1998). Cells are maintained at 37° in a Hepes based culture medium in a Bioptechs cell perfusion chamber (Choidas et al, 1998).

The target in a further series is T1, Prodan-labeled G-actin (Oryctolagus cuniculus, UniProt P68135).
T1 construct: F-actin is purified from rabbit skeletal muscle using a standard protocol; Prodan (Acrylodan) fluorophore, chemical label on the thiol of Cys374; from tissue; host or cells: rabbit skeletal muscle
Nature of the series: Prodan-G-actin titration: binding stoichiometry and dissociation constant. Further details: species or system rabbit. The procedure: FIG. 2: (A), Stoichiometric binding of Prodan-labeled G-actin (1 μM) in G-buffer with KabC at final concentrations of in μm, a: 0.0; b: 0.1; c: 0.2; d: 0.3; e: 0.4; f: 0.5; g: 0.6; h: 0.7; i: 0.8; j: 0.9; k: 1.0; l: 1.1; m: 1.2; n: 1.5 (B), Plot of the integrated intensity in (A) against [KabC] yields a binding stoichiometry of 1:1.
Prodan-actin: Actin is labeled with the thiol probe, Acrylodan (Molecular Probes, Eugene, Oreg.) using a standard protocol (Marriott et al, 1988). Rabbit muscle G-actin is labeled with the thiol reactive, environmentally sensitive probe, Acrylodan, according to the inventor's earlier publication (Marriott et al, 1988). […]
Determination of the binding stoichiometry and dissociation constants for G-actin complexes with ABPs and macrolide drugs: The change in the quantum yield and/or emission energy of Prodan-actin is used to quantify the interaction of CapG and macrolides with G-actin. The stoichiometry of the CapG-G-actin and macrolide-G-actin complex is determined by titrating Prodan-G-actin at 1 μM with increasing amounts of CapG or the macrolide from 0.1^−10 μM. […] The equilibrium binding constant is determined by titrating a constant amount of Prodan labeled G-actin at 0.05˜0.1 μM in G- or F-buffer with incrementally increasing amounts of the macrolide or CapG over a range of 10 nM to 10 μM. […]

The next series deals with T2, G-actin (Oryctolagus cuniculus, UniProt P68135).
T2 construct: F-actin is purified from rabbit skeletal muscle using a standard protocol; from tissue; host or cells: rabbit skeletal muscle
Nature of the series: Prodan-actin polymerization assay. The following applies: stoichiometric binding conditions. Type of series: biochemical, rabbit. How it is done: FIG. 5: Time course for G-actin polymerization. Prodan-labeled G-actin is mixed to a final concentration of 5 μM with a pre-formed complex of G-actin-KBC at the following concentrations: a: 0 nM; b: 1 nM; c: 5 nM; d: 10 nM; e: 20 nM; f: 50 nM; g: 250 nM) and the polymerization reaction initiated by the addition of KCl and MgCl2 to 0.1 M and 2 mM respectively at 20°. Excitation at 385 nm and Emission at 465 nm.
Prodan-Actin Polymerization assay The fluorescence emission spectrum of a 5 μM solution of Prodan-labeled G-actin is recorded in G-buffer. Polymerization is initiated by adding KCl and MgCl2 to 100 mM and 2 mM respectively and the time course of the reaction is monitored continuously over a 60-minute period time by recording the emission intensity at 465 nm. In other experiments the progress of actin polymerization is determined by recording the Prodan-actin emission spectrum at defined times during the reaction.
The G-actin-KabC complex inhibits actin polymerization by capping the (+)-end of the filament. […] Adding KCl and MgCl2 to 100 mM and 2 mM respectively polymerizes this G-actin mixture and the progress of the reaction is monitored by the increase in Prodan-actin fluorescence at 465 nm (FIG. 5; Marriott et al, 1988). […]

Entries after “also recorded” stand apart in the source; their conditions may differ.

Take Kabiramide C [KabC]: in the series on NBT-II cells, the “concentration at which cytotoxic effects are seen” value is reported as more than 10 nM. For the same substance, the “cytotoxic activity on NBT II epithelia cells” value in the series on NBT-II cells is on record as “concentration dependent cytotoxic activity”. Besides, the cell phenotype entry was “fail to complete cytokinesis and are immotile” with NBT-II cells (10 nM, >12 hours); “the cells lose control of contractile functions and have enlarged vesicles” with NBT-II cells (100 nM); “complete breakdown of their actin cytoskeleton and die within a few hours” in the series on NBT-II cells (1 μM or higher); “an increase in the number of blebs, a breakdown in the adherens junction and a cytokinesis defect; also recorded: cytoskeleton-linked phenotypes” in the series on NBT-II cells (10˜100 nM). Also, in the series on NBT-II cells (1000 nM), the “time to cell death” value is recorded as 8˜12 hours. Also, on Prodan-labeled G-actin, the “decrease of quantum yield of Prodan-G-actin on binding” value is approximately 3 fold. The actin monomer sequestering result at G-actin was “sequester actin monomers and raise the critical concentration for actin polymerization”.
